Columns and labels:
[1] = tested on: cutaneous and/or mucosal toxicity induced by anti-EGFR drugs; assay: administration of lycopene to patients treated with anti-EGFR drugs; format: in vivo
From the text: The regression has been so significant that patients, who could not shave the beard before the treatment with lycopene, could perform normal shaving after 2 weeks from the daily administration of lycopene.

[2] = cited from earlier work
[3] = patients affected by paronychia due to anti-EGFR drugs
[4] = dosage of treatment group A (6.5 mg tablets, 3 tablets/day)

CC(C)=CCC/C(C)=C/C=C/C(C)=C/C=C/C(C)=C/C=C/C=C(C)/C=C/C=C(C)/C=C/C=C(\C)CCC=C(C)C [lycopene]
regression of pustular injuries ([1]; male patients of age between 35 and 55 years treated with anti-EGFR drugs, already presenting pustular injuries): significant regression | time from daily administration until normal shaving possible ([1]; male patients who could not shave the beard before treatment, daily administration): 2 weeks | functional ability of hand fingers [1, 3]: recover the lost functional ability | nail growth and strength [1, 3]: recover the normal nail growth and strength | pain condition in paronychia [1, 3]: improvement of the pain condition | inflammation of paronychia ([1]; patients affected by paronychia due to anti-EGFR drugs with functional disabling of the hand fingers): resolution of the inflammation | regression of the rosiness (diffuse erythema of the face) ([1]; patients treated with anti-EGFR drugs): significant regression of the rosiness | onset/extension of rosiness coloration ([1]; some patients not yet affected by erythema): delayed and/or decreased the extension of such coloration | side effects during chronic intake ([2]; chronic intake, several studies): absence of relevant side effects | observed safe level of intake (OSL) ([2]; chronic intake): up to 75 mg/day | antioxidant effects at the trial dosage [2, 4]: significant antioxidant effects | side effects at the trial dosage [2, 4]: not to have relevant side effects
